In US20250375441A1, “ONCOLYTIC THERAPY WITH A DUAL HDAC3 AND HDAC8 TARGETING AGENT” (priority 2024, published 2025):

Legend:
[1] = target: HDAC2 (Homo sapiens, UniProt Q92769); test: ZEBRA flow cytometry in cells overexpressing FLAG-HDAC2; details: HH514-16, 1 μM YX968 or 3 mM NaB, 24 hours after treatment, N=3
[2] = test system: EBV-positive HH514-16 Burkitt lymphoma cell line; test: qPCR of late lytic gene BFRF3; assay type: cell-based; details: HH514-16, varying concentrations, 48 hours, vs DMSO (0.1%), N=3
Method: Cells were harvested, RNA was extracted, RNA was converted to cDNA, and qPCR was performed. Expression of BFRF3, a late lytic gene, is increased (FIG. 2). […] Progression of the lytic cycle to late lytic gene expression indicates availability of the early gene product needed to activate ganciclovir. N=3 biological replicates.

[3] = test system: EBV-positive HH514-16 Burkitt lymphoma cell line; test: ZEBRA staining by flow cytometry (EBV lytic reactivation); assay type: cell-based; details: HH514-16, varying concentrations, 24 hours, vs DMSO (0.1%)
Excerpt: Cells were harvested, fixed and permeabilized, stained with a monoclonal antibody to the viral latent-to-lytic switch protein ZEBRA (Bam Z EBV Replication Activator), and examined by flow cytometry. ZEBRA is an early lytic protein of EBV, encoded by BZLF1, that drives the lytic cascade. Cells were stained in parallel with an isotype-matched control antibody for placement of gates.

[4] = target: HDAC1 (Homo sapiens, UniProt Q13547); test: ZEBRA flow cytometry in cells overexpressing HDAC1-FLAG; details: HH514-16, 1 μM YX968, 24 hours after treatment, N=3
Sequence of HDAC1 (Q13547 whole entry): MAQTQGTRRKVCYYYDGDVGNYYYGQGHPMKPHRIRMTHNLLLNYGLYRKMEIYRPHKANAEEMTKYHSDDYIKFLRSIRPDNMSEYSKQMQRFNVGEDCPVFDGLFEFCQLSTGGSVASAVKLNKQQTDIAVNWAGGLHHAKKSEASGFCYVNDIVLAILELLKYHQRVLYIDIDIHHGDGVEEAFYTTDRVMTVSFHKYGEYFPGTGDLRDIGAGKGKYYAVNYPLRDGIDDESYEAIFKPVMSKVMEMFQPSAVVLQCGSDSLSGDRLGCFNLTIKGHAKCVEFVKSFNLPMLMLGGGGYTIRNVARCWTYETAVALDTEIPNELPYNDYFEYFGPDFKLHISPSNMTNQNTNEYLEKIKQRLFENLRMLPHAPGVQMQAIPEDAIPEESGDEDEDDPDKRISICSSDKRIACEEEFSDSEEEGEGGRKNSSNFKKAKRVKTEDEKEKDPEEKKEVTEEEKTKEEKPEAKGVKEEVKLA

[5] = test system: BZLF1 promoter; test: H3K27Ac chromatin immunoprecipitation and qPCR at the BZLF1 promoter; details: HH514-16, 1 μM, 12 hours, vs DMSO (0.1%)
[6] = test system: HH514-16 cells; test: Cell death after exposure; assay type: cell-based; details: 1 μM, 72 hours, vs DMSO (0.1%), N=2
[7] = test system: lymphoma cell line BC1 latently infected with KSHV; assay type: cell-based
[8] = test system: EBV; test: EBV viral load by qPCR for BALF5, normalized to 18S; assay type: cell-based; details: HH514-16, 1 μM YX968 for 18 hours, then ganciclovir 40 μM; vs no ganciclovir, N=2
Method: Ganciclovir was then added at a concentration of 40 μM. Cells were then centrifuged, DNA was extracted, and qPCR for BALF5—a single copy EBV gene—was then used to determine the viral load of EBV in the cells. The ribosomal gene 18S was used as the control to normalize for the number of cells collected. […] N=2 biological replicates.

Sequence of HDAC2 (Q92769 whole entry): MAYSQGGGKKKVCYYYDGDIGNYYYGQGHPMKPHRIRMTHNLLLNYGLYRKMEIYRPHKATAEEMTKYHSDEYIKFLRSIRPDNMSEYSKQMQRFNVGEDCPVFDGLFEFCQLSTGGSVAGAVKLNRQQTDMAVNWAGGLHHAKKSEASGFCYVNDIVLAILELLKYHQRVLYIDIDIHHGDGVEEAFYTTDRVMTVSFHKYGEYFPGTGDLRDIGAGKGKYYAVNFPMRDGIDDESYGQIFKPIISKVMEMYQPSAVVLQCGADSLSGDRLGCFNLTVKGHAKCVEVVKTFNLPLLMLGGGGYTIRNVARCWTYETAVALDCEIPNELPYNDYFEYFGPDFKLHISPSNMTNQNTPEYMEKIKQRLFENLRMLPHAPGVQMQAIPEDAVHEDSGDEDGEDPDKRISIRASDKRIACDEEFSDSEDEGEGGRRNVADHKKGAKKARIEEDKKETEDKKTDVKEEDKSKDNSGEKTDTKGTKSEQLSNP

Compound	ZEBRA expression post-induction, HDAC2 overexpressing vs not overexpressing cells [1]	expression of BFRF3, a late lytic gene [2]	levels of ZEBRA (EBV switching to lytic phase) [3]	number of cells that expressed ZEBRA, HDAC1 overexpressing (FLAG positive) vs FLAG negative [4]	amount of acetylated H3K27 at the BZLF1 promoter (fold enrichment vs control IgG) [5]	cells left alive [6]	expression of immediate early gene RTA [7]	viral load of EBV [8]
CCCC(=O)[O-].[Na+] [NaB, sodium butyrate, reference compound]	less likely to express ZEBRA							
CCCNNC(=O)c1ccc(N2CCN(CCCCCCCC(=O)N[C@H](C(=O)N3C[C@H](O)C[C@H]3C(=O)N[C@@H](C)c3ccc(-c4scnc4C)cc3)C(C)(C)C)CC2)cc1 [YX968]	less likely to express ZEBRA	increased	increased levels of ZEBRA	no significant change	statistically significant increase	significantly fewer cells left alive	increases in expression	
Nc1nc(O)c2ncn(COC(CO)CO)c2n1 [ganciclovir]								significantly lower
